ChEMBL document CHEMBL5729714, “Indazoles as hematopoietic progenitor kinase 1 (HPK1) inhibitors and methods using same” (2023)

molecular target: Mitogen-activated protein kinase kinase kinase kinase 1 (Homo sapiens, UniProt Q92918); test: ADP-Glo kinase assay: HPK1 kinase activity was measured by Promega's ADP-Glo™ kinase assay. In this assay, 5 ng of recombinant human HPK1 (signalchem) is incubated with 5 μL of compounds (0.5% DMSO), 5 μL of MBP (0.5 μg/μl) and 5 μL of ATP (25 μM) in buffer (40 mM Tris, 7.5; 20 mM MgCl2; 0.1 mg/ml BSA; 5 μM DTT). The assay was started by incubating the reaction mixture in a 96-well plate at 30′ C for 40 minutes. After the incubation, 25 uL ADP-Glo reagent was added and the reaction was incubated at room temperature for 40-min to stop the reaction and degrade residual ATP. The ADP product was then converted to ATP by adding 50 uL per well of detection reagent. Luminescence was detected after 30-min room temperature incubation with the Molecular device I3X plate reader. The IC50 values were calculated from a series of percent inhibition values determined at a range of inhibitor concentration using software routines as implemented in the GraphPad Prism 7 software and SigmaPlot13.0.
Sequence (Q92918 whole entry): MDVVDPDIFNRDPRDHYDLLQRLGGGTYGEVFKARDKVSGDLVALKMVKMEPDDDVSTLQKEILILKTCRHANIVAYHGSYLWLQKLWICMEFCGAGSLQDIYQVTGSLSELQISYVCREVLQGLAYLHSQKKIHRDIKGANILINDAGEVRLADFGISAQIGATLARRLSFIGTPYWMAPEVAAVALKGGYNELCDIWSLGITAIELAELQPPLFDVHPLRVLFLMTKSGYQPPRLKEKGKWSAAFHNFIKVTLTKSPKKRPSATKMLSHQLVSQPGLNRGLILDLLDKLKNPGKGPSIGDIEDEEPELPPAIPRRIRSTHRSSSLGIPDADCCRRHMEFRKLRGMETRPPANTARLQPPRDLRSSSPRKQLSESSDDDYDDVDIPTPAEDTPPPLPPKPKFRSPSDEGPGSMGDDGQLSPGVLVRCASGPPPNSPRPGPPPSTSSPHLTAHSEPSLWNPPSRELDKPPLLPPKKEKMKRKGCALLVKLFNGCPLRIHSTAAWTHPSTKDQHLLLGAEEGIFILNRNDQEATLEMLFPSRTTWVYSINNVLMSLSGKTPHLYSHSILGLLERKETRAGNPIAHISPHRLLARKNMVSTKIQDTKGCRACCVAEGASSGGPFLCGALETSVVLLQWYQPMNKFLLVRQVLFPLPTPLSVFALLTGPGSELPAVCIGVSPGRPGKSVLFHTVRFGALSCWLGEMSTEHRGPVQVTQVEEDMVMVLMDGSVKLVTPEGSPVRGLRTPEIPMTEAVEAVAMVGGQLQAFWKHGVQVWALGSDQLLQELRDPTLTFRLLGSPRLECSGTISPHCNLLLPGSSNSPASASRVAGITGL

| IC50 [nM] | SMILES |
| --- | --- |
| < 100 | CC(Nc1c(F)c(Cl)c(-c2ccc3nc(NC(=O)[C@@H]4C[C@@H]4F)cn3c2)c2cn[nH]c12)C(=O)N(C)C (some centres undefined) |
| < 100 | CCN(C)c1c(F)c(C)c(-c2ccc3nc(NC(=O)[C@@H]4C[C@@H]4F)sc3n2)c2cn[nH]c12 |
| < 100 | Cc1c(F)c([S+](C)[O-])c2[nH]ncc2c1-c1ccn2nc(NC(=O)[C@@H]3C[C@@H]3F)cc2c1 (some centres undefined) |
| < 100 | O=C(Nc1nc2ccc(-c3c(Cl)c(F)c(N4CCCC4)c4[nH]ncc34)cc2s1)[C@@H]1C[C@@H]1F |
| < 100 | CSc1c(F)c(C)c(-c2ccn3nc(NC(=O)C4CC4)cc3c2)c2cn[nH]c12 |
| > 1000 | Cc1c(F)c(S(C)(=O)=O)c2[nH]ncc2c1-c1ccc2nc(NC(=O)[C@@H]3C[C@@H]3F)sc2n1 |
| < 100 | O=C(Nc1cn2cc(-c3c(Cl)c(F)c(CN4CCCC4)c4[nH]ncc34)ccc2n1)[C@@H]1C[C@@H]1F |
| < 100 | CSc1c(F)c(C)c(-c2ccc3nc(NC(=O)[C@@H]4C[C@@H]4F)sc3n2)c2cn[nH]c12 |
| < 100 | CC(c1c(F)c(Cl)c(-c2ccc3nc(NC(=O)[C@@H]4C[C@@H]4F)cn3c2)c2cn[nH]c12)n1ncnn1 (some centres undefined) |
| < 100 | N#Cc1c(F)c(Cl)c(-c2ccc3nc(NC(=O)[C@@H]4C[C@@H]4F)sc3c2)c2cn[nH]c12 |
| < 100 | CC(O)c1c(F)c(Cl)c(-c2ccc3nc(NC(=O)[C@@H]4C[C@@H]4F)cn3c2)c2cn[nH]c12 (some centres undefined) |
| < 100 | O=C(Nc1cn2cc(-c3c(Cl)c(F)c(NC4CCOC4)c4[nH]ncc34)ccc2n1)[C@@H]1C[C@@H]1F (some centres undefined) |
| < 100 | O=C(Nc1cn2cc(-c3c(Cl)c(F)c(C(F)C(F)(F)F)c4[nH]ncc34)ccc2n1)[C@@H]1C[C@@H]1F (some centres undefined) |
| < 100 | COC(C)c1c(F)c(Cl)c(-c2ccc3nc(NC(=O)[C@@H]4C[C@@H]4F)cn3c2)c2cn[nH]c12 (some centres undefined) |
| < 100 | O=C(Nc1cc2cc(-c3c(C(F)(F)F)c(F)cc4[nH]ncc34)ccn2n1)[C@@H]1C[C@@H]1F |
| < 100 | COC(c1c(F)c(Cl)c(-c2ccc3nc(NC(=O)[C@@H]4C[C@@H]4F)cn3c2)c2cn[nH]c12)C(F)(F)F (some centres undefined) |
| < 100 | CC(=O)N(C)c1c(F)c(C)c(-c2ccn3nc(NC(=O)[C@@H]4C[C@@H]4F)cc3c2)c2cn[nH]c12 |
| < 100 | C[S+]([O-])Cc1c(F)c(Cl)c(-c2ccc3nc(NC(=O)[C@@H]4C[C@@H]4F)cn3c2)c2cn[nH]c12 (some centres undefined) |
| < 100 | CS(=O)(=O)Cc1c(F)c(Cl)c(-c2ccc3nc(NC(=O)[C@@H]4C[C@@H]4F)cn3c2)c2cn[nH]c12 |
| < 100 | Cn1cccc1-c1c(F)c(Cl)c(-c2ccc3nc(NC(=O)[C@@H]4C[C@@H]4F)cn3c2)c2cn[nH]c12 |
| < 100 | CSc1c(F)c(C)c(-c2ccn3nc(NC(=O)[C@H]4C[C@H]4F)cc3c2)c2cn[nH]c12 |
| < 100 | O=C(Nc1cn2cc(-c3c(Cl)c(F)c(-c4cc[nH]c4)c4[nH]ncc34)ccc2n1)[C@@H]1C[C@@H]1F |
| < 100 | CCN(C)c1c(F)c(C)c(-c2ccc3nc(NC(=O)[C@@H]4C[C@@H]4F)sc3c2)c2cn[nH]c12 |
| < 100 | CSc1c(F)c(C)c(-c2ccn3nc(NC(=O)[C@@H]4C[C@H]4F)cc3c2)c2cn[nH]c12 |
| < 100 | O=C(Nc1cn2cc(-c3c(Cl)c(F)c(C(O)C(F)(F)F)c4[nH]ncc34)ccc2n1)[C@@H]1C[C@@H]1F (some centres undefined) |

| IC50 [nM] | SMILES |
| --- | --- |
| < 100 | CSc1c(F)c(SC)c2[nH]ncc2c1-c1ccc2nc(NC(=O)[C@@H]3C[C@@H]3F)sc2c1 |
| < 100 | CC(F)c1c(F)c(Cl)c(-c2ccc3nc(NC(=O)[C@@H]4C[C@@H]4F)cn3c2)c2cn[nH]c12 (some centres undefined) |
| < 100 | CC(=O)N(C)c1c(F)c(C)c(-c2ccc3nc(NC(=O)[C@@H]4C[C@@H]4F)cn3c2)c2cn[nH]c12 |
| < 100 | O=C(Nc1cn2cc(-c3c(Br)c(F)cc4[nH]ncc34)ccc2n1)[C@@H]1C[C@@H]1F |
| < 100 | Cn1ccc(-c2c(F)c(Cl)c(-c3ccc4nc(NC(=O)[C@@H]5C[C@@H]5F)cn4c3)c3cn[nH]c23)c1 |
| < 100 | O=C(Nc1cc2cc(-c3c(Cl)c(F)c(CO)c4[nH]ncc34)ccn2n1)[C@@H]1C[C@@H]1F |
| < 100 | CC(=O)Nc1c(F)c(C)c(-c2ccn3nc(NC(=O)[C@@H]4C[C@@H]4F)cc3c2)c2cn[nH]c12 |
| < 100 | CCN(C)c1c(F)c(C)c(-c2ccc3nc(NC(=O)[C@@H]4C[C@@H]4F)cn3c2)c2cn[nH]c12 |
| < 100 | O=C(Nc1cc2cc(-c3c(Cl)c(F)c(C(O)C(F)(F)F)c4[nH]ncc34)ccn2n1)[C@@H]1C[C@@H]1F (some centres undefined) |
| < 100 | N#CC(NC=O)c1c(F)c(Cl)c(-c2ccc3nc(NC(=O)[C@@H]4C[C@@H]4F)cn3c2)c2cn[nH]c12 (some centres undefined) |
| < 100 | CCOC(c1c(F)c(Cl)c(-c2ccc3nc(NC(=O)[C@@H]4C[C@@H]4F)cn3c2)c2cn[nH]c12)C(F)(F)F (some centres undefined) |
| < 100 | CSc1c(F)c(C)c(-c2ccn3nc(NC(=O)[C@H]4C[C@@H]4F)cc3c2)c2cn[nH]c12 |
| < 100 | CCN(C)c1c(F)c(Cl)c(-c2ccc3nc(NC(=O)[C@@H]4C[C@@H]4F)sc3n2)c2cn[nH]c12 |
| < 100 | CSCc1c(F)c(Cl)c(-c2ccc3nc(NC(=O)[C@@H]4C[C@@H]4F)cn3c2)c2cn[nH]c12 |
| < 100 | Cn1nccc1-c1c(F)c(Cl)c(-c2ccc3nc(NC(=O)[C@@H]4C[C@@H]4F)cn3c2)c2cn[nH]c12 |
| < 100 | CCc1c(F)c(SC(C)C#N)c2[nH]ncc2c1-c1ccn2nc(NC(=O)[C@@H]3C[C@@H]3F)cc2c1 (some centres undefined) |
| < 100 | O=C(Nc1cn2cc(-c3c(Cl)c(F)c(CO)c4[nH]ncc34)ccc2n1)[C@@H]1C[C@@H]1F |
| < 100 | CC(=O)N(C)c1c(F)c(C)c(-c2ccc3nc(NC(=O)[C@@H]4C[C@@H]4F)sc3n2)c2cn[nH]c12 |
| < 100 | Cn1ccnc1Sc1c(F)c(Cl)c(-c2ccc3nc(NC(=O)[C@@H]4C[C@@H]4F)cn3c2)c2cn[nH]c12 |
| < 100 | CSC(C)c1c(F)c(Cl)c(-c2ccc3nc(NC(=O)[C@@H]4C[C@@H]4F)cn3c2)c2cn[nH]c12 (some centres undefined) |
| < 100 | N#CCSc1c(F)c(Cl)c(-c2ccn3nc(NC(=O)[C@@H]4C[C@@H]4F)cc3c2)c2cn[nH]c12 |
| < 100 | C=Cc1c(F)cc2[nH]ncc2c1-c1ccc2nc(NC(=O)[C@@H]3C[C@@H]3F)sc2c1 |
| < 100 | O=C(Nc1cn2cc(-c3c(Cl)c(F)c(NC4=NCCN4)c4[nH]ncc34)ccc2n1)[C@@H]1C[C@@H]1F |
| < 100 | CNC(=O)CSc1c(F)c(Cl)c(-c2ccc3nc(NC(=O)[C@@H]4C[C@@H]4F)sc3c2)c2cn[nH]c12 |
